Measured values reported in ChEMBL document CHEMBL5653631, “A Potent and Selective ULK1 Inhibitor Suppresses Autophagy and Sensitizes Cancer Cells to Nutrient Stress” (iScience, 2018).
Values belong to the compound of their own block, whether it stands above or below them.

Tests used:
[1] = biological target: Mitogen-activated protein kinase kinase kinase kinase 1 (Homo sapiens) (UniProt Q92918); experiment: Inhibition of human recombinant HPK1 at 500 nM in presence of ATP by radiometric assay relative to control
[2] = biological target: T1, Serine/threonine-protein kinase Sgk1 (Homo sapiens) (UniProt O00141); experiment: Inhibition of human recombinant SGK1 at 500 nM in presence of ATP by radiometric assay relative to control
T1 sequence (whole entry): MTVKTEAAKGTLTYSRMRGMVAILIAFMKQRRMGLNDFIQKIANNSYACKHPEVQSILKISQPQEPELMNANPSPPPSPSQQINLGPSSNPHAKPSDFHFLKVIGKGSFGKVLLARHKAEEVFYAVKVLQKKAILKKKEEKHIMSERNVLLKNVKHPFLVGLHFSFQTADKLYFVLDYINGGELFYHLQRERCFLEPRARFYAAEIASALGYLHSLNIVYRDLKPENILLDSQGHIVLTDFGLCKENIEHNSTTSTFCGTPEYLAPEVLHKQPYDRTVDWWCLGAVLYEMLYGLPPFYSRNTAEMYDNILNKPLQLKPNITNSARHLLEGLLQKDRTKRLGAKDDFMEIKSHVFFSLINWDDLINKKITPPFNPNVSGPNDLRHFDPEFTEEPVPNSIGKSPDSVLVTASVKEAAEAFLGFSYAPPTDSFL

[3] = biological target: Cyclin-dependent kinase 7 (Homo sapiens) (UniProt P50613); experiment: Inhibition of human recombinant CDK7 at 500 nM related to control ULK1
[4] = biological target: cAMP-dependent protein kinase catalytic subunit alpha (Homo sapiens) (UniProt P17612); experiment: Inhibition of human recombinant PKACalpha at 500 nM related to control ULK1
[5] = biological target: Cyclin-dependent kinase 7 (Homo sapiens) (UniProt P50613); experiment: Inhibition of human recombinant CDK7 at 15 nM in presence of ATP by radiometric assay relative to control
[6] = biological target: Serine/threonine-protein kinase MARK2 (Homo sapiens) (UniProt Q7KZI7); experiment: Inhibition of human recombinant MARK2 at 15 nM in presence of ATP by radiometric assay relative to control
[7] = biological target: Cyclin-dependent kinase 5 (Homo sapiens) (UniProt Q00535); experiment: Inhibition of human recombinant CDK5 at 15 nM related to control ULK1
[8] = biological target: T2, Serine/threonine-protein kinase ULK3 (Homo sapiens) (UniProt Q6PHR2); experiment: Inhibition of human recombinant ULK3 at 15 nM related to control ULK1
T2 sequence (whole entry): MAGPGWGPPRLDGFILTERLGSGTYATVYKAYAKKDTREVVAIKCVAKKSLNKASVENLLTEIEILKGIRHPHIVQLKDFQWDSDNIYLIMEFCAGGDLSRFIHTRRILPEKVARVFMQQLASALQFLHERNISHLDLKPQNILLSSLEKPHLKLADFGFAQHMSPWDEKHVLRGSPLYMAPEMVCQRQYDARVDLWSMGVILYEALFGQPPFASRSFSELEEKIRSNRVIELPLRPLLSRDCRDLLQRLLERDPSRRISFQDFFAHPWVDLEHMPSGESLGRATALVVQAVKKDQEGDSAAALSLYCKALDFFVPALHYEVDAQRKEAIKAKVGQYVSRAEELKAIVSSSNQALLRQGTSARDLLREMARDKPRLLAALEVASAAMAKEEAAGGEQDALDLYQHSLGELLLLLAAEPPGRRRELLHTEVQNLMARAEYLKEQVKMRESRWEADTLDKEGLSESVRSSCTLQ

[9] = biological target: Activin receptor type-2A (Homo sapiens) (UniProt P27037); experiment: Inhibition of human recombinant ACTR2 at 15 nM in presence of ATP by radiometric assay relative to control
[10] = biological target: T3, Ephrin type-A receptor 1 (Homo sapiens) (UniProt P21709); experiment: Inhibition of human recombinant EphA1 at 40 nM in presence of ATP by radiometric assay relative to control
T3 sequence (whole entry): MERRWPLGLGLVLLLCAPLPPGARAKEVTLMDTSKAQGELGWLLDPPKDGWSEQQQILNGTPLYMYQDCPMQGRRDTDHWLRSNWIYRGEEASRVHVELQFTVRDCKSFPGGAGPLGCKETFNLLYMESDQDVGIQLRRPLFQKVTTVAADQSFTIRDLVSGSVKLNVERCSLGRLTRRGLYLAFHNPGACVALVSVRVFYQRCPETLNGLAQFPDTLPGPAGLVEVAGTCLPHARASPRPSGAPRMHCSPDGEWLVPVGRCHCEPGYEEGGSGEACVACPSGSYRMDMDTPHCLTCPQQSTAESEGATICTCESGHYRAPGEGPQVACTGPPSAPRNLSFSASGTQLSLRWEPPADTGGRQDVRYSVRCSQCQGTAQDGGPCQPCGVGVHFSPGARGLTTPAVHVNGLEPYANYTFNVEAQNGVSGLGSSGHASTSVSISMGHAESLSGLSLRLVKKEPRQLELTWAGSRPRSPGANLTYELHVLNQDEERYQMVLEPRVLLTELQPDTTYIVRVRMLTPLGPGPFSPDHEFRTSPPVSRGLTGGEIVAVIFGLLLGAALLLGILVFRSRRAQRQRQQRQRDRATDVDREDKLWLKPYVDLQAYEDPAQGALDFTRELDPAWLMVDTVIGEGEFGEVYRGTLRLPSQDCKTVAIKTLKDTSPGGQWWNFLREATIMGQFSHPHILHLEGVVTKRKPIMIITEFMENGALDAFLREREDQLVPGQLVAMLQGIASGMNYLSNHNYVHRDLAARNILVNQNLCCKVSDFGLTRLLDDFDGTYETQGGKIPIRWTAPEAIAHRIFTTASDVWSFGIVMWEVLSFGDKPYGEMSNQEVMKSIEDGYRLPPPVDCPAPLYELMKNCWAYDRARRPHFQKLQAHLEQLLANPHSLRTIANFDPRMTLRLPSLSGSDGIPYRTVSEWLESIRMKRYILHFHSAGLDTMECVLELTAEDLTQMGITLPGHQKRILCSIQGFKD

[11] = biological target: Fibroblast growth factor receptor 4 (Homo sapiens) (UniProt P22455); experiment: Inhibition of human recombinant FGFR4 at 40 nM in presence of ATP by radiometric assay relative to control
[12] = biological target: Leukocyte tyrosine kinase receptor (Homo sapiens) (UniProt P29376); experiment: Inhibition of human recombinant LTK at 40 nM in presence of ATP by radiometric assay relative to control
[13] = biological target: Serine/threonine-protein kinase 32B (Homo sapiens) (UniProt Q9NY57); experiment: Inhibition of human recombinant YANK2 at 40 nM in presence of ATP by radiometric assay relative to control
[14] = biological target: Serine/threonine-protein kinase Chk2 (Homo sapiens) (UniProt O96017); experiment: Inhibition of human recombinant CHK2 at 40 nM related to control ULK1
[15] = biological target: Serine/threonine-protein kinase pim-2 (Homo sapiens) (UniProt Q9P1W9); experiment: Inhibition of human recombinant PIM2 at 40 nM related to control ULK1
[16] = biological target: Protein kinase C delta type (Homo sapiens) (UniProt Q05655); experiment: Inhibition of human recombinant PKCd at 40 nM related to control ULK1

inhibition [1]: 32% | inhibition [2]: 2% | fold change (FC) [3]: 0.39 | fold change (FC) [4]: 0
Compound: CNC(=O)c1ccccc1Oc1nc(Nc2cc(OC)c(OC)c(OC)c2)ncc1Br

inhibition [5]: 16% | inhibition [6]: 47% | fold change (FC) [7]: 0.26 | fold change (FC) [8]: 0.45 | inhibition [9]: 4%
Compound: CC(C)[C@H](NC(=O)c1cc(-c2cnn3cc(-c4ccc(OCCN5CCCCC5)cc4)cnc23)cs1)C(F)(F)F

inhibition [10]: 0% | inhibition [11]: 0% | inhibition [12]: 0% | inhibition [13]: 3% | fold change (FC) [14]: 0 | fold change (FC) [15]: 0.04 | fold change (FC) [16]: 0.04
Compound: O=C(N[C@@H](C1CC1)C(F)(F)F)c1cc(-c2cnn3cc(-c4ccc(F)cc4)cnc23)cs1
